From paper PMC9143821, “Design and Synthesis of a Novel 4-aryl-N-(2-alkoxythieno [2,3-b]pyrazine-3-yl)-4-arylpiperazine-1-carboxamide DGG200064 Showed Therapeutic Effect on Colon Cancer through G2/M Arrest” (Pharmaceuticals, 2022)

Experiments:
[1] = Pharmacokinetics in ICR mice; format: in vivo; settings: mouse, plasma, 5 mg/kg
[2] = logP determination; format: physicochemical
From the text: Table 4 Physicochemical Properties of the Lead Compounds 7c. | column: 7c

[3] = Maximum tolerated dose evaluation, 2 weeks; format: in vivo; settings: 150 mg/kg oral administration, 2-week evaluation
[4] = system: HCT116 cells; assay: FACS analysis of cell cycle distribution; format: cell-based, human; settings: HCT116, different concentrations, 6 h
Method: Many anticancer drugs induce apoptosis through programmed signaling in tumor cells. To test whether the newly developed 4-phenyl-N-(thieno[2,3-b]pyrazin-3-yl)piperazine-1-carboxamide derivatives could induce apoptosis, we conducted a FACS analysis of HCT116 cells with the representative compound 7c or DGG200064. Cell cycle distribution of HCT116 cells was investigated with different concentrations of DGG200064 for 6 h. […] Additionally, DGG200064 was tested for induced G2/M arrest in the other types of colon cancer cells in concentrations of 50 nM for 6 h (Figure 2b).
A colon cancer cells were trypsinized and fixed in 70% (vol/vol) ethanol for DNA staining. For cell cycle analysis, fixed cells were washed with PBS and subsequently resuspended in Propidium Iodide (PI)/RNase staining solution (0.05 mg/mL PI, 0.1 mg/mL RNase A in PBS). FACS analysis was performed using FACSCanto II (BD Biosciences, San Jose, CA, USA).

[5] = system: HCT116 and DLD1 cells; assay: Immunoblotting of cell cycle and FBXW7 substrate proteins; format: cell-based, human; settings: 6 h
Method: HCT116 and DLD1 cells were exposed to increasing concentrations of DGG200064 (0, 10, 50, 100 nM) for 6 h. […] Moreover, there were increased levels of c-Jun by DGG200064 (50 nM) treatment in other 6-colon cancer cells (Figure S1, Supplementary Materials). c-Jun is a component of the transcription factor activator protein 1 (AP-1), which is activated by a variety of extracellular stimuli, such as growth factors and UV irradiation. In cancer cells, activation of c-Jun promotes down-stream target gene transcription, and it is involved in cell proliferation, growth, division, and apoptosis. […] To test whether DGG200064 could induce G2/M cell cycle arrest through the increasing of c-Jun level, the two genes were silenced using c-Jun siRNAs and treated with DGG200064 in HCT116 and DLD1 cells (Figure 3c). When c-Jun was silenced, the amount of cyclin B protein treated by DGG200064 decreased. […]
The whole-cell lysate was prepared using Radioimmunoprecipitation assay buffer (RIPA buffer) prepared in 50 mM Tris-HCl, pH 8.0, with 150 mM sodium chloride, 1.0% Igepal CA-630 (NP-40), 0.5% sodium deoxycholate, 0.1% sodium dodecyl sulfate, protease inhibitor cocktail, and phosphatase inhibitor cocktail. […] Membranes were washed five times with TBST, and chemiluminescence was detected using Westsave™ (Abfrontier, Seoul, Korea). […]

**Q.** What does the source list for `COc1cc(OC)cc(N2CCN(C(=O)Nc3nc4sccc4nc3OC)CC2)c1` [Compound 7c, 4-(3,5-Dimethoxyphenyl)-N-(2-methoxythieno[2,3-b]pyrazin-3-yl)piperazine-1-carboxamide]?
**A.** AUC(0-inf) ([1]; IV): 16600 ng·h/mL; AUC(0-t) ([1]; IV): 16400 ng·h/mL; clearance ([1]; IV): 5.08 mL/min/kg; half-life ([1]; IV): 2.98 h; AUC(0-inf) ([1]; PO): 2340 ng·h/mL; AUC(0-t) ([1]; PO): 2260 ng·h/mL; Cmax ([1]; PO): 798 ng/mL; Tmax ([1]; PO): 0.667 h; bioavailability ([1]; PO): 13.8%; half-life ([1]; PO): 5.2 h; logP [2]: 2.63; body weight [3]: no loss of body weight; G2/M arrest [4]: induced G/2M arrest in a dose-dependent manner; apoptosis [4]: did not cause apoptosis; cyclin E and c-Myc levels ([5]; HCT116, 0, 10, 50, 100 nM): not affected; cyclin B1, c-Jun and p-c-Jun levels ([5]; HCT116 and DLD1, 0, 10, 50, 100 nM): dose-dependent increase
